Measured values from patent US12070033B1, “Aquatic herbicide having non-herbicidal functional ingredients” (SePRO Corporation, priority 2019, dated 2024).

Tested on: hydrilla
Test: Total phosphorus extracted from hydrilla and from the water in which it was located
Assay type: in vivo, Hydrilla verticillata
Conditions: 5 ppm dipotassium endothall
Experimental: Turning now to FIG. 7, treatment of aquatic weeds with the aquatic herbicidal formulation results in both an increased release of nutrients, such as phosphorus, from treated plants and a reduction from the water column of those nutrients released. In one experiment, total phosphorus was extracted from hydrilla and from water in which the hydrilla was located. In one test group, the hydrilla was untreated (control group). In a second test group, the hydrilla was treated with Formulation 1 (5 ppm dipotassium endothall) and, in a third test group, the hydrilla was treated with Aquathol® K (5 ppm dipotassium endothall). In the untreated control group, the plants remained healthy and pulled available phosphorus from the water column, resulting in a lower amount of phosphorus in the water (indicated by the darker shading at the bottom of each column) as compared to groups treated with Formulation 1 and Aquathol® K (as indicated by the lighter shading at the top of each column).

## O=C([O-])[C@@H]1[C@H](C(=O)[O-])[C@H]2CC[C@@H]1O2.[K+].[K+] [dipotassium endothall]
  plant's phosphorus released into the water: approximately 27%
